Holding throughout (assay type): cell-based, human
The subject of assay [1] is HIF-1α mRNA. Kind of assay: qPCR of HIF-1α mRNA. The settings on record: qPCR (FIG. 2C). An excerpt:
In addition, the amount of HIF-1α mRNA in LW1564-treated cells was investigated by a qPCR method. Total RNA was isolated using TRIzol reagent (Invitrogen), and cDNA was synthesized using TOPscript™ DryMIX (Enzynomics, Seoul, Korea). The HIF1A primer sequences are Fwd 5′-CTGACCCTGCACTCAATCAAG-3′ and Rev 5′-TGGGACTATTAGGCTCAGGTG-3.

Assay [2] has as its system HIF-1α. The assay is described as follows: HIF-1α protein accumulation in other cancer cell lines under hypoxia. The settings on record: A549, WiDr, MIA-CaCa2 and HCT116 (FIG. 2D).
Assay [3] concerns GLUT1, PDK1 and VEGF mRNA. Kind of assay: qPCR of HIF-1 target genes in HepG2 cells. The settings on record: hypoxia, HepG2 cells (FIG. 2E). Here is the method:
Next, mRNA levels of HIF-1 target genes GLUT1, PDK1 and VEGF were measured. The primer sequences were Fwd 5′-TTTGGCTACAACACTGGAGTC-3′ (SEQ ID NO: 1) and Rev 5′-CATGCCCCCAACAGAAAAGAT-3′ (SEQ ID NO: 2) for GLUT1; Fwd 5′-CAGGACAGCCAATACAAGTGG-3′ (SEQ ID NO: 3) and Rev 5′-CATTACCCAGCGTGACATGAA-3′ (SEQ ID NO: 4) for PDK1; Fwd 5′-CCTTGCTGCTCTACCTCCAC-3′ (SEQ ID NO: 5) and Rev 5′-ATGATTCTGCCCTCCTCCTT-3′ (SEQ ID NO: 6) for VEGFA; and Fwd 5′-CATAGGAAGCTGGGAGCAAG-3′ (SEQ ID NO: 7) and Rev 5′-GCCCTCCAATCAGTCTTCTG-3′ (SEQ ID NO: 8) for RPL13A. […] Taken together, it was identified that LW1564 (compound 21-3) suppressed HIF-1α accumulation through stimulated proteasome degradation, thereby reducing the mRNA expression of the target gene.
In general terms: In qPCR the cycle at which signal appears reflects the starting amount.

The subject of assay [4] is mitochondrial ETC complex I. Kind of assay: Mitochondrial respiration assay, complex I (malate/pyruvate). The settings on record: HepG2 cells, 100 μM LW1564 (FIG. 4B). As for the experimental part: Compounds that suppress mitochondrial respiration promote degradation of HIF-1α by increasing cellular oxygen content. Accordingly, it was investigated whether LW1564 (compound 21-3) affected mitochondrial respiration by measuring the oxygen consumption rate (OCR). Oxygen consumption was measured using an Oxytherm Clark-type electrode system (Hansatech, Norfolk, UK) (Chou, T. C. Theoretical basis, experimental design, and computerized simulation of synergism and antagonism in drug combination studies. Pharmacol. Rev. 58, 621-681 (2006)). HepG2 cells (2×10^7) were cultured with 2 μM LW1564 (compound 21-3) for 6 hours, collected, and then OCR was measured at 37° C. for 5 minutes with a thermoregulated controlled circulating system. For […] studies, digitonin-permeabilised HepG2 cells (2×10^7) were read on a detection device containing 2 ml of respiratory buffer (0.25 M sucrose, 2 mM KH2PO4, 5 mM MgCl2, 1 mM EDTA, 1 mM ADP, 20 mM MOPS, pH 7.4). The following substrates, which provide electrons to the components in the ETC, were then added: 5 mM sodium pyruvate, 5 mM sodium malate, 5 mM sodium succinate, 5 mM L-ascorbic acid and 0.2 mM N,N,N,N-tetra methyl-p-phenylenediamine (TMPD). Complex I, III and IV inhibitors (rotenone, antimycin A and KCN, respectively) were added to a final concentration of 1 μM. […]

Assay [5] deals with HepG2 cells. Kind of assay: HepG2 cell proliferation at different glucose concentrations. The settings on record: low glucose (3 mM) versus high glucose (25 mM) medium (FIG. 5C). Here is the method:
The glycolytic function is activated in many cancer cells. Accordingly, it was investigated whether LW1564 (compound 21-3) affected cancer cell proliferation according to glucose concentration. […] Next, in order to investigate the combined effect of LW1564 (compound 21-3), […] on the proliferation of HepG2 cells, Combination Index (CI) and isobologram analysis were performed. The CI value quantitatively represents the correlation between two drugs through GI50 analysis indicating the cell proliferation suppression concentration, and synergistic, additive and antagonistic effects are defined as CI<1, CI=1 and CI>1.

With `COc1cc2c(cc1OC)CN(C(=O)C13CC4CC(C1)CC(c1ccc(OCC(=O)N5CCN(Cc6ccc(C(F)(F)F)cc6)CC5)cc1)(C4)C3)CC2` [Compound 21c, 2-(4-(3-(6,7-Dimethoxy-1,2,3,4-tetrahydroisoquinoline-2-carbonyl)adamantan-1-yl)phenoxy)-1-(4-(4-(trifluoromethyl)benzyl)piperazin-1-yl) ethanone], in assay [1], the “amount of HIF-1α mRNA” value is reported as “no change in the amount of HIF-1α mRNA”. Moreover, the “HIF-1α protein accumulation in various cancer cell lines” value in assay [2] is listed as “significantly reduced HIF-1α protein accumulation”. Further, the “mRNA amount of HIF-1 target genes GLUT1, PDK1 and VEGF” value in assay [3] was “decreased the mRNA amount of GLUT1, PDK1 and VEGF”. Besides, the “oxygen consumption by complex I” value in assay [4] was “reduced oxygen consumption by complex I”. Further, the “cell proliferation suppression according to glucose concentration” value in assay [5] is “stronger cell proliferation suppression efficacy in cells in a medium with a low glucose concentration (3 mM)”.

The values above are taken from US12534436B2, “Disubstituted adamantyl derivative or pharmaceutically acceptable salt thereof, and pharmaceutical composition for suppressing cancer growth comprising same as active ingredient” (ONECUREGEN CO., LTD., priority 2020, dated 2026).
